Data taken from ChEMBL document CHEMBL3045835, “Comparative study of conventional and microwave-assisted synthesis of some Schiff bases and their potential as antimicrobial agents” (2012).
≈ marks a conversion by molar mass, not a printed value.

Experiments:
Type in all cases: functional
Micrococcus luteus [1] = assay: Antibacterial activity against Micrococcus luteus MTCC 1538 at 100 ug/ml after 18 hr by cup-plate method; settings: MTCC 1538, 18 h, read-out: DIZ
Penicillium chrysogenum [2] = assay: Antifungal activity against Penicillium chrysogenum MTCC 161 at 1500 ug/ml after 18 hr by cup-plate method; settings: MTCC 161, 18 h, read-out: DIZ
Staphylococcus aureus [3] = assay: Antibacterial activity against Staphylococcus aureus MTCC 1430 at 200 ug/ml after 18 hr by cup-plate method; settings: MTCC 1430, 18 h, read-out: DIZ
Pseudomonas fluorescens [4] = assay: Antibacterial activity against Pseudomonas fluorescens MTCC 2421 at 500 ug/ml after 18 hr by cup-plate method; settings: MTCC 2421, 18 h, read-out: DIZ
Staphylococcus aureus [5] = assay: Antibacterial activity against Staphylococcus aureus MTCC 1430 after 24 hr by broth dilution method; settings: MTCC 1430, 24 h
Escherichia coli [6] = assay: Antibacterial activity against Escherichia coli MTCC 1573 at 100 ug/ml after 18 hr by cup-plate method; settings: MTCC 1573, 18 h, read-out: DIZ
Micrococcus luteus [7] = assay: Antibacterial activity against Micrococcus luteus MTCC 1538 at 1000 ug/ml after 18 hr by cup-plate method; settings: MTCC 1538, 18 h, read-out: DIZ
Penicillium chrysogenum [8] = assay: Antifungal activity against Penicillium chrysogenum MTCC 161 at 1000 ug/ml after 18 hr by cup-plate method; settings: MTCC 161, 18 h, read-out: DIZ
Micrococcus luteus [9] = assay: Antibacterial activity against Micrococcus luteus MTCC 1538 at 1500 ug/ml after 18 hr by cup-plate method; settings: MTCC 1538, 18 h, read-out: DIZ
Bacillus pumilus = assay: Antibacterial activity against Bacillus pumilus MTCC 1456 at 1500 ug/ml after 18 hr by cup-plate method; settings: MTCC 1456, 18 h, read-out: DIZ
Escherichia coli [10] = assay: Antibacterial activity against Escherichia coli MTCC 1573 after 24 hr by broth dilution method; settings: MTCC 1573, 24 h
Staphylococcus aureus [11] = assay: Antibacterial activity against Staphylococcus aureus MTCC 1430 at 1500 ug/ml after 18 hr by cup-plate method; settings: MTCC 1430, 18 h, read-out: DIZ
Bacillus subtilis = assay: Antibacterial activity against Bacillus subtilis MTCC 441 at 1000 ug/ml after 18 hr by cup plate method; settings: MTCC 441, 18 h, read-out: DIZ
Micrococcus luteus [12] = assay: Antibacterial activity against Micrococcus luteus MTCC 1538 at 500 ug/ml after 18 hr by cup-plate method; settings: MTCC 1538, 18 h, read-out: DIZ
Pseudomonas aeruginosa [13] = assay: Antibacterial activity against Pseudomonas aeruginosa MTCC 424 at 1000 ug/ml after 18 hr by cup-plate method; settings: MTCC 424, 18 h, read-out: DIZ
Pseudomonas fluorescens [14] = assay: Antibacterial activity against Pseudomonas fluorescens MTCC 2421 after 24 hr by broth dilution method; settings: MTCC 2421, 24 h
Aspergillus niger [15] = assay: Antifungal activity against Aspergillus niger MTCC 2546 at 100 ug/ml after 18 hr by cup-plate method; settings: MTCC 2546, 18 h, read-out: DIZ
Aspergillus niger [16] = assay: Antifungal activity against Aspergillus niger MTCC 2546 at 1000 ug/ml after 18 hr by cup-plate method; settings: MTCC 2546, 18 h, read-out: DIZ
Penicillium chrysogenum [17] = assay: Antifungal activity against Penicillium chrysogenum MTCC 161 at 500 ug/ml after 18 hr by cup-plate method; settings: MTCC 161, 18 h, read-out: DIZ
Pseudomonas aeruginosa [18] = assay: Antibacterial activity against Pseudomonas aeruginosa MTCC 424 at 1500 ug/ml after 18 hr by cup-plate method; settings: MTCC 424, 18 h, read-out: DIZ
Pseudomonas fluorescens [19] = assay: Antibacterial activity against Pseudomonas fluorescens MTCC 2421 at 200 ug/ml after 18 hr by cup-plate method; settings: MTCC 2421, 18 h, read-out: DIZ
Escherichia coli [20] = assay: Antibacterial activity against Escherichia coli MTCC 1573 at 500 ug/ml after 18 hr by cup-plate method; settings: MTCC 1573, 18 h, read-out: DIZ
Staphylococcus aureus [21] = assay: Antibacterial activity against Staphylococcus aureus MTCC 1430 at 1000 ug/ml after 18 hr by cup-plate method; settings: MTCC 1430, 18 h, read-out: DIZ
Escherichia coli [22] = assay: Antibacterial activity against Escherichia coli MTCC 1573 at 1500 ug/ml after 18 hr by cup-plate method; settings: MTCC 1573, 18 h, read-out: DIZ
Aspergillus niger [23] = assay: Antifungal activity against Aspergillus niger MTCC 2546 after 24 hr by broth dilution method; settings: MTCC 2546, 24 h
Penicillium chrysogenum [24] = assay: Antifungal activity against Penicillium chrysogenum MTCC 161 at 200 ug/ml after 18 hr by cup-plate method; settings: MTCC 161, 18 h, read-out: DIZ
Pseudomonas aeruginosa [25] = assay: Antibacterial activity against Pseudomonas aeruginosa MTCC 424 after 24 hr by broth dilution method; settings: MTCC 424, 24 h

With `O=c1c(/C=N/c2ccc(Cl)cc2)coc2ccccc12` the zone of inhibition at 100 µg/mL (Micrococcus luteus [1]) was 16 mm, the zone of inhibition at 1500 µg/mL (Penicillium chrysogenum [2]) was 21 mm and the zone of inhibition at 200 µg/mL (Staphylococcus aureus [3]) was 14 mm. For the same molecule, the zone of inhibition at 500 µg/mL (Pseudomonas fluorescens [4]) was 14 mm, the MIC (Staphylococcus aureus [5]) was 300 µg/mL (≈ 1060 µM) and the zone of inhibition at 100 µg/mL (Escherichia coli [6]) was 13 mm. It also gave a zone of inhibition at 1000 µg/mL (Micrococcus luteus [7]) of 23 mm, a zone of inhibition at 1000 µg/mL (Penicillium chrysogenum [8]) of 20 mm and a zone of inhibition at 1500 µg/mL (Micrococcus luteus [9]) of 24 mm. It also gave a zone of inhibition at 1500 µg/mL (Bacillus pumilus) of 19 mm, an MIC (Escherichia coli [10]) of 400 µg/mL (≈ 1410 µM) and a zone of inhibition at 1500 µg/mL (Staphylococcus aureus [11]) of 21 mm. The zone of inhibition at 1000 µg/mL (Bacillus subtilis) was 19 mm, the zone of inhibition at 500 µg/mL (Micrococcus luteus [12]) was 21 mm and the zone of inhibition at 1000 µg/mL (Pseudomonas aeruginosa [13]) was 20 mm. It also gave an MIC (Pseudomonas fluorescens [14]) of 300 µg/mL (≈ 1060 µM), a zone of inhibition at 100 µg/mL (Aspergillus niger [15]) of 16 mm and a zone of inhibition at 1000 µg/mL (Aspergillus niger [16]) of 20 mm. It also gave a zone of inhibition at 500 µg/mL (Penicillium chrysogenum [17]) of 19 mm, a zone of inhibition at 1500 µg/mL (Pseudomonas aeruginosa [18]) of 21 mm and a zone of inhibition at 200 µg/mL (Pseudomonas fluorescens [19]) of 12 mm. It also gave a zone of inhibition at 500 µg/mL (Escherichia coli [20]) of 17 mm, a zone of inhibition at 1000 µg/mL (Staphylococcus aureus [21]) of 18 mm and a zone of inhibition at 1500 µg/mL (Escherichia coli [22]) of 20 mm. For the same molecule, the MIC (Aspergillus niger [23]) was 200 µg/mL (≈ 705 µM), the zone of inhibition at 200 µg/mL (Penicillium chrysogenum [24]) was 17 mm and the MIC (Pseudomonas aeruginosa [25]) was 200 µg/mL (≈ 705 µM).
